Here are results for 7 substances from patent publication US20130157949A1, “Novel Peptides for Wound Healing” (GENE SIGNAL INTERNATIONAL SA, priority 2010, published 2013).

In experiment [1] the test system is trans-dermal wounds. The experiment is described as follows: wound healing of trans-dermal wounds in mice, topical application. In kind it is in vivo. The following applies: for speed of wound healing compared with Vehicle / 156A protein: topical 0.5 mg/ml, time course over 4 days; for % healing at day 1 post treatment / % healing at day 2 post treatment / % healing at day 3 post treatment / % healing at day 4 post treatment: topical 0.5 mg/ml (5 mg/kg), 1 application/day, 5 mm punch wounds. On the procedure:
The vehicle (Batch A) was administered by topical application at a standardized volume of 10 ml/kg for all applications. The peptides of the invention, the protein 156A or the peptides 2, 6 and 9 were administered by topical application at the concentration of 0.5 mg/ml in the vehicle. The protocols of treatment were as it follows: • Group 1: (Batch A, Vehicle): 1 topical application 10 minutes after wounding • Group 2: (Peptide 7, 0.5 mg/ml): 1 topical application 10 minutes after wounding • Group 3: (Peptide 10, 0.5 mg/ml): 1 topical application 10 minutes after wounding • Group 4: (Peptide 11, 0.5 mg/ml): 1 topical application 10 minutes after wounding • Group 5: (Peptide 7B, 0.5 mg/ml): 1 topical application 10 minutes after wounding. • Group 6: (Peptide 2, 0.5 mg/ml): 1 topical application 10 minutes after wounding. • Group 7: (Peptide 6, 0.5 mg/ml): 1 topical application 10 minutes after wounding. • Group 8: (Peptide 9, 0.5 mg/ml): 1 topical application 10 minutes after wounding. • Group 9: (Protein 156A, 0.5 mg/mL): 1 topical application 10 minutes after wounding.
Healthy female BALBC Swiss mice were anesthetized by IP injection of Ketamine-Xylazine (80 mg/kg-12 mg/kg; Ref. K-113, Sigma, France). Two trans-dermal wounds, each of 5 mm in width and about 1 to 2 mm in depth were realized in the right and the left flanks of each mouse using 5 mm punch.
At D1, and 10 min post-injury of the animals, the mice were randomized into 9 groups of 3 mice each.
All treatments were realized by topical application at the frequency of 1 topical application/day, for 4 days. Animals of group 1 were treated with the vehicle solution (Batch A). Animals of groups 2 to 9 were treated with the indicated peptide or with the 156A protein at a dose of 5 mg/kg.

The subject of experiment [2] is human microvascular endothelial cells (HMEC). The experiment is described as follows: in vitro angiogenesis assay (Matrigel, endothelial tube formation). In kind it is cell-based. The following applies: for in vitro angiogenesis-inducing activity: 400 μg/ml final concentration, images at 6 h post incubation; for classification of in vitro angiogenesis inducing activity: 400 μg/ml, rank order among peptides. On the procedure:
Angiogenesis of human microvascular endothelial cells (HMEC) was induced in vitro using a Matrigel assay described by Grant et α1 (1989, Cell, 1989; 58:933). This method is based on the differentiation of endothelial cells to form capillary structures on a Matrigel Matrix. Matrigel is prepared the Engelbreth-Holm-Swarm (EHS) mouse tumor, which represents a complex mixture of basement membrane proteins including type IV collagen, entactin, proteo-heparan sulfate and other growth factors.
Briefly, 250 μl of Matrigel were transferred to each well of a 24-well culture plate and incubated at 37° C. for 30 min to allow for the matrix solution to solidify. HMEC grown in complete growth medium EGM-2MV were harvested by trypsin, suspended in the same growth medium and 500 μl containing 70 000 cells were added on top of the solidified Matrigel in each well and in the presence or absence of protein. Cells were maintained in a humidified atmosphere air containing 5% CO2 at 37° C. for 18-24 hrs. Endothelial tube formation was observed and photographed under an inverted light microscope.
The designed small peptides 7 (SEQ ID NO: 1), 10 (SEQ ID NO: 3), and 11 (SEQ ID NO: 4) were synthesized and tested for their in vitro angiogenesis-inducing activities (as described in Methods here above).
The results of the in vitro angiogenesis assay were presented in FIG. 1, using HMEC and 400 μg/ml final concentration of each peptide. Images were taken at 6 h post incubation.

The test system of experiment [3] is trans-dermal wounds in diabetic mice. The experiment is described as follows: wound healing in diabetic mice, subcutaneous injection beneath the wound. The format is in vivo, ob/ob C57BL6/J mice. As to conditions: 2 mg/ml or 5 mg/ml, sb injection 200 μl/day for 4 days, 8 mm punch wounds. On the procedure: Diabetic female ob/ob C57BL6/J mice were anesthetized by IP injection of Ketamine-Xylazine (80 mg/kg-12 mg/kg; Ref. K-113, Sigma, France). Two trans-dermal wounds, each of 8 mm in width and about 1 to 2 mm in depth were realized in the right flank of each mouse using 8 mm punch.
At D1, and 10 min post-injury of the animals, the mice were randomized into 3 groups of 5 mice each.
All treatments were realized by subcutaneous (sb) injections beneath the wounded area at the frequency of 1 sb injection/day, for 4 days. Animals of group 1 were injected with the vehicle solution (Batch A; 200 μl/injection, beneath the wounded area). Animals of groups 2 were sb injected with P7 solution in vehicle (2 mg of P7/ml of vehicle) (200 μl/injection; 16 mg/kg; beneath the wounded area). Animals of groups 3 were sb injected with P7 solution in vehicle (5 mg of P7/ml of vehicle) (200 μl/injection; 40 mg/kg; beneath the wounded area).

Experiment [4] relates to VEGFA protein. The experiment is described as follows: VEGFA protein by sandwich ELISA in HMEC culture medium. In kind it is cell-based, human. The procedure:
Serum-deprived HMEC were incubated with different concentrations of peptide 7 or peptide 10 or vehicle […]. After 3 washes with ice-cold PBS, cells were suspended with the protein extraction buffer (PEB) (20 mM Tris-HCl pH 7.5, 150 mM NaCl, 1 mM EDTA, 1 mM EGTA, 1% Triton, 25 mM sodium pyrophosphate, 1 mM β-glycero-phosphate, 1 mM Na3Vo4, 1 μg/ml leupeptine, 1 μM PMSF). The protein content was measured by Bradford. VEGFA concentration in the culture medium or in the extracts was determined by human VEGFA Sandwich ELISA kit (Cell Signaling technology) according to the manufacturer's instructions.
(An ELISA detects its analyte on a solid surface through an enzyme-linked reagent.)

Experiment [5] relates to VEGFA mRNA. Description: VEGFA expression by real time quantitative PCR in HMEC. The format is cell-based, human. As to conditions: 400 μg/ml, 6 h, QPCR. On the procedure:
After exposure to the indicated concentrations of peptide 7 or peptide 10 issued from the recombinant protein GS-156A or vehicle for 24 h, HMEC (5×10^5 cells/ml), total mRNA were isolated using NucleoSpin RNA II kit. RNA yields and purity were assessed by spectrophotometric analysis. The real-time RT-PCR was performed as previously described (Voghel et al., 2008). […] The real-time PCR reactions were carried out with the DNA Engine OPTICON 2 continuous fluorescence detector (MJ Research, Waltham, Mass., U.S.A.). The results were quantified using the equation: CopyTF:CopyGAPDH=2C(t)GAPDH−C(t)TF. All PCR products were analyzed by electrophoresis on a 1.5% agarose gel, visualized with ethidium bromide, and analyzed using the Genesnap 6.00.26 software (Syngene, Cambridge, U.K.). […]
The influence of peptide 7 and peptide 10 on VEGFA expression was investigated. For that, HMEC were incubated with either peptide 7 (400 μg/ml final concentration), or peptide 10 (400 μg/ml final concentration) for 6 h, followed by measuring the expression of VEGFA by real time quantitative PCR (QPCR).

Experiment [6] concerns MAPK (Erk1 and 2). The experiment is described as follows: activation status of MAPK (pErk1/2) by western-blot in HMEC. In kind it is cell-based, human. The following applies: immunoblot pErk1/2. On the procedure:
The activation status of MAPK was determined by western-blot using an anti-activated MAPK (pErk1/2) antibody, and anti-GAPDH mAb as internal standard.
We have also investigated the status of the mitogen activated protein kinase (MAPK), as it is well established that it represents another cascade of intracellular signaling could be implicated in the regulation of VEGF expression.
In general terms: A western blot detects proteins with antibodies after separation by electrophoresis.

Experiment [7] relates to Protein Kinase B (Akt). Description: activation status of protein kinase B (pAkt) by western-blot in HMEC. The following applies: 400 μg/ml, 10 min and 30 min post incubation, immunoblot. In kind it is cell-based, human. On the procedure: The activation status of pAkt was determined by western-blot using an anti-phosphoserine 473 pAkt antibody, and anti-GAPDH mAb as internal standard.
The status of Akt in the HMEC following incubation with either peptide 7 or peptide 10 was investigated.

For “RLNRSDSDSSTLAKK [Peptide 2, comparative fragment of the 156A protein without enhanced efficiency]”, in experiment [1], the “speed of wound healing compared with Vehicle / 156A protein” value was “healed slower than the wounds treated with Vehicle”.
As for “QSQKVPRQVQS [Peptide 11, fragment of the protein 156A, chemically synthesized]”, in experiment [2], the “in vitro angiogenesis-inducing activity” value is recorded as “strong in vitro angiogenesis-inducing activity” and the “classification of in vitro angiogenesis inducing activity” value (“classification” below) is given as “peptide 7>peptide 10>peptide 11”. In experiment [1], the “% healing at day 1 post treatment” value worked out at 41.9%, the “% healing at day 2 post treatment” value is on record as 52.1%, the “% healing at day 3 post treatment” value worked out at 58.4% and the “% healing at day 4 post treatment” value was 64.4%. The “speed of wound healing compared with Vehicle / 156A protein” value in experiment [1] is on record as “healed faster than the wounds treated with Vehicle or with the 156A protein”.
Consider “FQRLLKQ [Peptide 9, comparative fragment of the 156A protein without enhanced efficiency]”, for which the “speed of wound healing compared with Vehicle / 156A protein” value in experiment [1] is on record as “healed slower than the wounds treated with Vehicle”.
Turning to “RSLRVKRTVCQSVLR [Peptide 6, comparative fragment of the 156A protein without enhanced efficiency]”, the “speed of wound healing compared with Vehicle / 156A protein” value in experiment [1] was “healed slower than the wounds treated with Vehicle”.
On to “TQECPVRTSLDRELDLQASL [Peptide 7, fragment of the protein 156A, chemically synthesized]”, for which the “healing of the wounds in diabetic mice compared to control” value in experiment [3] is “strong healing of the wounds”. Also, in experiment [2], the “in vitro angiogenesis-inducing activity” value was “strong in vitro angiogenesis-inducing activity” and the “classification” value was “peptide 7>peptide 10>peptide 11”. Also, the “increases of VEGFA-biosynthesis and excretion” value in experiment [4] (400 μg/ml) is on record as “about 2 folds”. Further, in experiment [4] (400 μg/ml of peptide, p<0.001), the “increase in VEGF protein within the culture medium (peak)” value is “about 97%”. For the same substance, in experiment [1], the “% healing at day 1 post treatment” value is reported as 52.8%, the “% healing at day 2 post treatment” value worked out at 60.1%, the “% healing at day 3 post treatment” value was 65.6% and the “% healing at day 4 post treatment” value is on record as 82.9%. The “speed of wound healing compared with Vehicle / 156A protein” value in experiment [1] is on record as “healed faster than the wounds treated with Vehicle or with the 156A protein”. Further, the “VEGFA mRNA higher than Control (no peptide)” value in experiment [5] is listed as “about 170%”. In addition, the “level of activation of Erk1 and 2 (MAPK) relative to Control” value in experiment [6] was “not significant variations in level of activation of Erk1 and 2”. In experiment [7], the “level of activated Akt relative to Control” value is recorded as “much higher level of activated Akt”.
As to “VSKDVCRL [Peptide 10, fragment of the protein 156A, chemically synthesized]”, in experiment [2], the “in vitro angiogenesis-inducing activity” value is listed as “strong in vitro angiogenesis-inducing activity” and the “classification” value is reported as “peptide 7>peptide 10>peptide 11”. For the same substance, in experiment [1], the “% healing at day 1 post treatment” value was determined as 42.8%, the “% healing at day 2 post treatment” value is reported as 61.3%, the “% healing at day 3 post treatment” value came to 65.6% and the “% healing at day 4 post treatment” value was 78.9%. For the same substance, the “speed of wound healing compared with Vehicle / 156A protein” value in experiment [1] is listed as “healed faster than the wounds treated with Vehicle or with the 156A protein”. The “VEGFA mRNA higher than Control (no peptide)” value in experiment [5] is on record as “about 60%”. Also, the “level of activation of Erk1 and 2 (MAPK) relative to Control” value in experiment [6] was “not significant variations in level of activation of Erk1 and 2”. In experiment [7], the “level of activated Akt relative to Control” value is “much higher level of activated Akt”.
Take “ELDLQASL [Peptide 7B, fragment of the protein 156A, chemically synthesized]”: in experiment [1], the “% healing at day 1 post treatment” value was found to be 33.2%, the “% healing at day 2 post treatment” value was found to be 56.9%, the “% healing at day 3 post treatment” value stood at 63.7% and the “% healing at day 4 post treatment” value came to 76.6%. Besides, the “speed of wound healing compared with Vehicle / 156A protein” value in experiment [1] is “healed faster than the wounds treated with Vehicle or with the 156A protein”.
